Laboratory results as given in EP0920857B1, “Oral composition for the treatment of halitosis” (DENTAID, S.A., priority 1997, dated 1999).
Like-named read-outs stand apart in the source and are kept apart here.

Assays:
Assay type in all cases: cell-based
[1] = system: mixture of periodontal bacteria; experiment: short interval killing test (SIKT), total surviving flora
Text: (§1) The anti-microbial activity of the mouth rinse evaluated "in vitro" by mortality studies over short intervals of time (short interval killing test, SIKT) against a mixture of periodontal bacteria containing between 1.0*10^5 and 1.0*10^7 CFU ml of each strain. The total counts obtained in the surviving flora and those pertaining to each strain after one minute of contact are summarised in Tables 3 and 4. TABLA 3

[2] = system: P. intermedia; experiment: short interval killing test (SIKT), count per strain
Text: as §1

[3] = system: F. nucleatum; experiment: as above
Text: as §1

[4] = system: P. gingivalis; experiment: as above
Text: as §1

[5] = system: Peptostreptococcus micros; experiment: as above
Text: as §1

[6] = system: P.intermedia; experiment: minimum inhibitory concentration (MIC), method of diffusion in agar
Text: (§2) The anti-microbial activity of a certain number of active ingredients was obtained by study of the minimum inhibitory concentrations (MIC) of the respective agents (by the method of diffusion in agar) against bacteria representing periodontal disease.

[7] = system: A.actinomycetemcomitans; experiment: as above
Text: as §2

[8] = system: P.gingivalis; experiment: as above
Text: as §2

[9] = one minute of contact, 1.0*10^5 to 1.0*10^7 CFU ml of each strain, PBS = 100%
[10] = P. intermedia, one minute of contact, PBS = 100%
[11] = F. nucleatum, one minute of contact, PBS = 100%
[12] = P. gingivalis, one minute of contact, PBS = 100%
[13] = Peptostreptococcus micros, one minute of contact, PBS = 100%

Structure (SMILES): CCCCCCCCCCCCCCCC[n+]1ccccc1 [CPC, cetylpyridinium chloride]
- Total CFU/ml recovered (%) at 1 minute [1]: 0.04%
- CFU/ml recovered from each strain (%) [2]: 0.01%
- CFU/ml recovered from each strain (%) [3]: 0.05%
- CFU/ml recovered from each strain (%) [4]: <0.01%
- CFU/ml recovered from each strain (%) [5]: 0.03%

Structure (SMILES): [H]/N=C(\N/C(=N/[H])NCCCCCCNC(=N)NC(=N)Nc1ccc(Cl)cc1)Nc1ccc(Cl)cc1 [Chlorhexidine]
- Minimum inhibitory concentration (MIC, % concentration) [6]: 0.0009%
- Minimum inhibitory concentration [7]: 0.004%
- Minimum inhibitory concentration (%) [8]: 0.002%

Structure (SMILES): N=C(NCCCCCCNC(=N)NC(=N)Nc1ccc(Cl)cc1)NC(=N)Nc1ccc(Cl)cc1.O=C(O)[C@H](O)[C@@H](O)[C@H](O)[C@H](O)CO.O=C(O)[C@H](O)[C@@H](O)[C@H](O)[C@H](O)CO [CHX, 1,6-bis (N^5-p-chlorophenyl-N^1-diguanido)hexane digluconate]
- Total CFU/ml recovered (%) at 1 minute [1, 9]: 25.55%
- CFU/ml recovered from each strain (%) [2, 10]: <0.56%
- CFU/ml recovered from each strain (%) [3, 11]: 0.87%
- CFU/ml recovered from each strain (%) [4, 12]: <0.81%
- CFU/ml recovered from each strain (%) [5, 13]: 82.12%

Structure (SMILES): O=S(=O)([O-])[O-].[Zn+2] [Zn^++, sulphate]
- Total CFU/ml recovered (%) at 1 minute [1, 9]: 47.65%
- CFU/ml recovered from each strain (%) [2, 10]: 0.56%
- CFU/ml recovered from each strain (%) [3, 11]: 40.9%
- CFU/ml recovered from each strain (%) [4, 12]: 33.9%
- CFU/ml recovered from each strain (%) [5, 13]: 54.5%
- Minimum inhibitory concentration (MIC, % concentration) [6]: 0.5%
- Minimum inhibitory concentration [7]: 0.1%
- Minimum inhibitory concentration (%) [8]: 0.5%

Structure (SMILES): CCCCC(CC)CN1CN(CC(CC)CCCC)CC(C)(N)C1 (centres unmarked) [Hexetidine]
- Minimum inhibitory concentration (MIC, % concentration) [6]: 0.001%
- Minimum inhibitory concentration [7]: 0.09%
- Minimum inhibitory concentration (%) [8]: 0.001%

Structure (SMILES): O=C([O-])[C@H](O)[C@@H](O)[C@H](O)[C@H](O)CO.O=C([O-])[C@H](O)[C@@H](O)[C@H](O)[C@H](O)CO.[Cu+2] [Cu^++ gluconate]
- Minimum inhibitory concentration (MIC, % concentration) [6]: 0.004%
- Minimum inhibitory concentration (%) [8]: 0.06%

Structure (SMILES): Oc1cc(Cl)ccc1Oc1ccc(Cl)cc1Cl [Triclosan, 5-chloro-2-(2,4-dichlorophenoxy)-phenol]
- Minimum inhibitory concentration (MIC, % concentration) [6]: 0.009%
- Minimum inhibitory concentration [7]: 0.0006%
- Minimum inhibitory concentration (%) [8]: 0.004%
